Laboratory results reported in patent US9745321B2, “Fused pyrimidine compound, intermediate, preparation method therefor, and composition and application thereof” (SHANGHAI YINGLI PHARMACEUTICAL CO., LTD, priority 2013, dated 2017).

Assays:
PI3Kβ = PI3Kβ (Homo sapiens (Human), UniProt P42338); assay: PI3Kβ enzyme activity inhibition IC50 evaluation assay; format: biochemical; settings: ratio PI3Kβ vs PI3Kδ
Method: (§1) PI3Kα, PI3Kδ, PI3Kβ and PI3Kγ Enzyme Activity Inhibition IC50 Evaluation Assay
(§2) • 1. Buffer preparation: 50 mM HEPES, pH 7.5, 3 mM MgCl2, 1 mM EGTA, 100 mM NaCl, 0.03% CHAPS. • 2. Compound was formulated in 100% DMSO in a concentration gradient, and added to a 384-well plate to a final DMSO concentration of 1%. • 3. PI3Kα, PI3Kδ, PI3Kβ and PI3Kγ enzymes were diluted to an optimum concentration with the following buffer: 50 mM HEPES, pH 7.5, 3 mM MgCl2, 1 mM EGTA, 100 mM NaCl, 0.03% CHAPS, 2 mM DTT, and transferred to a 384-well plate and incubated with the compound for a certain time. • 4. Substrate was diluted to an optimum concentration with the following buffer: 50 mM HEPES, pH 7.5, 3 mM MgCl2, 1 mM EGTA, 100 mM NaCl, 0.03% CHAPS, 2 mM DTT, 50 μM PIP2, 25 μM ATP; then added to a 384-well plate to initiate the reaction, and for PI3Kα, PI3Kβ and PI3Kγ at room temperature reacted for 1 hr, for PI3Kδ at room temperature reacted for 2 hrs. For PI3Kβ and PI3Kγ, it was still necessary to further add 10 μL ADP-Glo Detection Reagent, and then equilibrated at room temperature for 30 minutes. • 5. Read Luminescense with FlexStation, and calculate the inhibition rate as the average of two tests.

PI3Kδ = PI3Kδ (Homo sapiens (Human), UniProt O00329); assay: PI3Kδ enzyme activity inhibition IC50 evaluation assay; format: biochemical; settings: luminescence, 25 μM ATP, 50 μM PIP2, 2 hrs room temperature
How it was run: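 Enzyme was preincubated with compound dilutions at 1% DMSO final in 50 mM HEPES pH 7.5, 3 mM MgCl2, 1 mM EGTA, 100 mM NaCl, 0.03% CHAPS, 2 mM DTT. Activity was read by luminescence, and inhibition rate is the mean of two tests.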

PI3Kγ = PI3Kγ (Homo sapiens (Human), UniProt P48736); assay: PI3Kγ enzyme activity inhibition IC50 evaluation assay; format: biochemical; settings: ratio PI3Kγ vs PI3Kδ
Method: as §1, §2

PI3Kα = PI3Kα (Homo sapiens (Human), UniProt P42336); assay: PI3Kα enzyme activity inhibition IC50 evaluation assay; format: biochemical; settings: ratio PI3Kα vs PI3Kδ
How it was run: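 Enzymes were preincubated with compound (1% DMSO final) in HEPES pH 7.5 buffer with MgCl2, EGTA, NaCl, CHAPS and 2 mM DTT. Reaction started with 50 μM PIP2 and 25 μM ATP, 1 h at room temperature. Luminescence was read, with ADP-Glo detection reagent added for β and γ; inhibition is the mean of two tests.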

Raji cells = assay: Inhibition of TNF-α generation of human Raji cell induced by human IgM; format: cell-based; settings: 10 μg/ml IgM stimulation, 24 hrs, ELISA
Method: Screening Test for a Drug on Inhibiting TNF-α Generation of Human Raji Cell Induced by Human IgM
• 1. Raji cell lines (source of human Burkitt's lymphoma) were employed. • 2. 1×10^5/well Raji cells were plated onto a 96-well cell culture plate. • 3. Compounds to be screened were diluted to the corresponding test concentrations and added into the cell culture system 30 minutes before IgM stimulation. • 4. 10 μg/ml IgM monoclonal antibody was added into the cell culture system to stimulate the cells generating TNF-α. • 5. 24 hrs later, the amount of TNF-α generated by the cell system was measured by ELISA method. • 6.

PI3Kγ, sequence (P48736 whole entry): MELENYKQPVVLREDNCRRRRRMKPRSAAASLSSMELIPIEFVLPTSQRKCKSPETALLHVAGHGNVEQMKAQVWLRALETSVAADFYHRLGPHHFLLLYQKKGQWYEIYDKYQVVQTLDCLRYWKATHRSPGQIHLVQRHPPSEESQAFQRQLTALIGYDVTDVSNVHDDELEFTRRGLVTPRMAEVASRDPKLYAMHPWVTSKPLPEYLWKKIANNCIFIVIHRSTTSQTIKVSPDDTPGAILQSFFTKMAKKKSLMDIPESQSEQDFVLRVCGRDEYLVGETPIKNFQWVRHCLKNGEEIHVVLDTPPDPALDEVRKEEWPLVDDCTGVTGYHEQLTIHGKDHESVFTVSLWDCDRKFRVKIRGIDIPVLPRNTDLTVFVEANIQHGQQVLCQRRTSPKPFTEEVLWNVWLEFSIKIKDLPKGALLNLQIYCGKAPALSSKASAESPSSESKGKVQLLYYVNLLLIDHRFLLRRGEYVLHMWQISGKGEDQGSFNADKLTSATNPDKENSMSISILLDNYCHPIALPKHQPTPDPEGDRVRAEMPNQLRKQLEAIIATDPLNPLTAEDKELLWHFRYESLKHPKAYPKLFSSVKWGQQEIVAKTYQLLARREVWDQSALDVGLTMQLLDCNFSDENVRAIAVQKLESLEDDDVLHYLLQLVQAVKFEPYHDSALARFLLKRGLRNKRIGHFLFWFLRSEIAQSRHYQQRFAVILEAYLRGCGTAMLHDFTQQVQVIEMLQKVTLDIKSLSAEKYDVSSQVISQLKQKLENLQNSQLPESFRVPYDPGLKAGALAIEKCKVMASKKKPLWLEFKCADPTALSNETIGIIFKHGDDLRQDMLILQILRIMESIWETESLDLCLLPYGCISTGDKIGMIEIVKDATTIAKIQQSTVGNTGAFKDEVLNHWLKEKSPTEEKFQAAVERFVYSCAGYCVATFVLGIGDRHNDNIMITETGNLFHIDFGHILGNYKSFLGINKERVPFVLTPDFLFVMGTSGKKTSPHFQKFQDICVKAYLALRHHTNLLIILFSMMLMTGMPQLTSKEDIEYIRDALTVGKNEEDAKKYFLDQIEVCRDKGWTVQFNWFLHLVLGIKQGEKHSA
PI3Kδ, sequence (O00329 whole entry): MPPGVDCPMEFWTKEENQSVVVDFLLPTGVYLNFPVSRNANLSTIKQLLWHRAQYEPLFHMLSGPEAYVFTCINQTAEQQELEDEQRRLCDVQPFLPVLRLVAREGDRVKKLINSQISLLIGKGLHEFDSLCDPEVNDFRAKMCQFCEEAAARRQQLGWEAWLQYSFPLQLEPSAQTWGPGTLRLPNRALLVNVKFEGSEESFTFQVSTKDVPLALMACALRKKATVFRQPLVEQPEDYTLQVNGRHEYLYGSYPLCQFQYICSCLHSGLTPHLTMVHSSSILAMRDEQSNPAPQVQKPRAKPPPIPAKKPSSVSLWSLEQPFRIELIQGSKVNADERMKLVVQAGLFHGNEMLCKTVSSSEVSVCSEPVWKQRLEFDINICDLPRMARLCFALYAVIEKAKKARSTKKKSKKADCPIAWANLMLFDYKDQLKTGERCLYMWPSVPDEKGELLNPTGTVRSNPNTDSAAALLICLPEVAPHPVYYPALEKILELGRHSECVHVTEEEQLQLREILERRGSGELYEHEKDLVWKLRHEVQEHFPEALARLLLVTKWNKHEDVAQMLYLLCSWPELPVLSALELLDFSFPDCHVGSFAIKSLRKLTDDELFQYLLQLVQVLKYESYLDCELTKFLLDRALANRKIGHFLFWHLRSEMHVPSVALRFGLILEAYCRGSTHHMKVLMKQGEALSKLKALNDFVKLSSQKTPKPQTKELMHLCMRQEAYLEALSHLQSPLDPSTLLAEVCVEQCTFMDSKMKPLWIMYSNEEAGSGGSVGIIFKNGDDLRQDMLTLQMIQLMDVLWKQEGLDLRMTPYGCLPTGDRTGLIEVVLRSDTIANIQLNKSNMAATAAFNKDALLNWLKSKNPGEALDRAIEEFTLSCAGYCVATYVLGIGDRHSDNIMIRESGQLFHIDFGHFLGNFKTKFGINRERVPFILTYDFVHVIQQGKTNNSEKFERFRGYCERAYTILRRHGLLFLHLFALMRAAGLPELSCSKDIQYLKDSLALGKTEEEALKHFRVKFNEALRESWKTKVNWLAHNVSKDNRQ
PI3Kδ, sequence (P27986 whole entry partner): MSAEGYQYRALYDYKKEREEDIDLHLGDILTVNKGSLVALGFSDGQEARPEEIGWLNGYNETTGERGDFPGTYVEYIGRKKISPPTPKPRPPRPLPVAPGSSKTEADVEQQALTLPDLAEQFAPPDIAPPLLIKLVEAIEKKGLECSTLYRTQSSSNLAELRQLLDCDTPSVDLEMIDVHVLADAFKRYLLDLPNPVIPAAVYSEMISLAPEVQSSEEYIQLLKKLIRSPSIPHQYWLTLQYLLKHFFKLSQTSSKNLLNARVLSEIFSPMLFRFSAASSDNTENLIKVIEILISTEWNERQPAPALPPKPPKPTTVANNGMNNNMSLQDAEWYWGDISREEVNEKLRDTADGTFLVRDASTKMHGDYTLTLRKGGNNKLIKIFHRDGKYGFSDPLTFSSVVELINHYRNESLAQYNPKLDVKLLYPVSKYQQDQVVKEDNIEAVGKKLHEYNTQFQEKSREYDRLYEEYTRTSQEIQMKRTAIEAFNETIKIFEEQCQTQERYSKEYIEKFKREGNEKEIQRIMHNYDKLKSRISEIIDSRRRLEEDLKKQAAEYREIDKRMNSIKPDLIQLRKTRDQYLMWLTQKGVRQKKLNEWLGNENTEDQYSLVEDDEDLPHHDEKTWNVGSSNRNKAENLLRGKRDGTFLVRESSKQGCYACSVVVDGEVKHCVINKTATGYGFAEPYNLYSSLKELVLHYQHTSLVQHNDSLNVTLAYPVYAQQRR
PI3Kα, sequence (P42336 whole entry): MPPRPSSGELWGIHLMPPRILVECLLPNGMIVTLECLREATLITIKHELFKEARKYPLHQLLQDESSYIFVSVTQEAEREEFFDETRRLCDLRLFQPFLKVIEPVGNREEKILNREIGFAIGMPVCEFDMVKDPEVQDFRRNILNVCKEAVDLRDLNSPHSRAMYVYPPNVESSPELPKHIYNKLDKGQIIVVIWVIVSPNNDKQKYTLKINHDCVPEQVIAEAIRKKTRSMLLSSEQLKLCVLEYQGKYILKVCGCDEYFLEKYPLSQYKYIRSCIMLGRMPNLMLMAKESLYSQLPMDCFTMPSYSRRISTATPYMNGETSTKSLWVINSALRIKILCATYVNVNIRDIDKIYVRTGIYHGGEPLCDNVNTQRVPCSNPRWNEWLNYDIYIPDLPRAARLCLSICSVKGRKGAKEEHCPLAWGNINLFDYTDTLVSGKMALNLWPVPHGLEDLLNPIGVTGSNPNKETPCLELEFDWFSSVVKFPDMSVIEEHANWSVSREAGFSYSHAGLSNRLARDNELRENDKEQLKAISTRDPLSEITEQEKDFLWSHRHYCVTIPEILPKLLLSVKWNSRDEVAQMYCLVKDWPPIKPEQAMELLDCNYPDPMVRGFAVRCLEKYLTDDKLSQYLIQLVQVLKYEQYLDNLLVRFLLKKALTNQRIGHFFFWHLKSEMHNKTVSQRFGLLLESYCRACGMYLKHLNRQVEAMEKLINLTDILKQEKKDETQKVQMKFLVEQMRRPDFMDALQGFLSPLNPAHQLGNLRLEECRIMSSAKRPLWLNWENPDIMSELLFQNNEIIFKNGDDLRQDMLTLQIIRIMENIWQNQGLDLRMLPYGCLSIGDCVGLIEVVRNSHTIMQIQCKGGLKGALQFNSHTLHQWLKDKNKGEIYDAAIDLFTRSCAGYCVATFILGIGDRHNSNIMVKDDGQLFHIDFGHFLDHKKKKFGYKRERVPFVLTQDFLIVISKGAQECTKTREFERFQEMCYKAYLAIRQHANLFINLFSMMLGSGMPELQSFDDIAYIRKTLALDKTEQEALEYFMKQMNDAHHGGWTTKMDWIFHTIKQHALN
PI3Kα, sequence (P27986 whole entry partner): as the sequence (P27986 whole entry partner) above
PI3Kβ, sequence (P42338 whole entry): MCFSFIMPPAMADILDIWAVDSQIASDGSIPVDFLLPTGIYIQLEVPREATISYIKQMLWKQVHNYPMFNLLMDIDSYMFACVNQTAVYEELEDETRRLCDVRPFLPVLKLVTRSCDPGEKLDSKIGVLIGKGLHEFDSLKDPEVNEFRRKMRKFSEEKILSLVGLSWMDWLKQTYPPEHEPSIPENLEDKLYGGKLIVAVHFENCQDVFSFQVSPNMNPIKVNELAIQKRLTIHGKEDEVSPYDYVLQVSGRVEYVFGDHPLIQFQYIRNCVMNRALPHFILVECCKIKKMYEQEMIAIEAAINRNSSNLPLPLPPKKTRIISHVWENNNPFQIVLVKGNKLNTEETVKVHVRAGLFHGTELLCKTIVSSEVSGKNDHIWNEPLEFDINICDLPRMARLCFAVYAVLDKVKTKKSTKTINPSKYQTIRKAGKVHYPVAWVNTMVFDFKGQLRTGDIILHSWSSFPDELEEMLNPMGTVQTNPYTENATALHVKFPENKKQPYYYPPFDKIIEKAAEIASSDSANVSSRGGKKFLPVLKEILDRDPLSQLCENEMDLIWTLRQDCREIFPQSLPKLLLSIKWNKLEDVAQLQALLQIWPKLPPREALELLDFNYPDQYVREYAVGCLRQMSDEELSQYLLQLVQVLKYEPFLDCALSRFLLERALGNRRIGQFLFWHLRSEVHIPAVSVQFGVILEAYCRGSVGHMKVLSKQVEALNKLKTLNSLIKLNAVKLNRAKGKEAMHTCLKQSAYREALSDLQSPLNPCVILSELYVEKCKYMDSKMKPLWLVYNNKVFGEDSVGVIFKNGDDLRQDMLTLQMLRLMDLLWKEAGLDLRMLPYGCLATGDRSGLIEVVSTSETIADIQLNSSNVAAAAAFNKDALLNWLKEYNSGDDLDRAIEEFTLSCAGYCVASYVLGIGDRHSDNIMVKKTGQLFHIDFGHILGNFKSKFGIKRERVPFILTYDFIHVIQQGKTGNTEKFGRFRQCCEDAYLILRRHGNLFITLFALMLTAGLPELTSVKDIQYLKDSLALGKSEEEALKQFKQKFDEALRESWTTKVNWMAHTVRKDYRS
PI3Kβ, sequence (P27986 whole entry partner): as the sequence (P27986 whole entry partner) above

| SMILES | β/δ selectivity (PI3Kβ) | IC50 (PI3Kδ) [nM] | γ/δ selectivity (PI3Kγ) | α/δ selectivity (PI3Kα) | IC50 (Raji cells) [nM] |
| --- | --- | --- | --- | --- | --- |
| CC(C)(O)C1CCN(Cc2csc3c(-c4cccc5[nH]ccc45)nc(N4CCOCC4)nc23)CC1 [Compound 4] | >282 | 35.4 | >282 | >282 | – |
| Cc1sc2c(-c3cccc4[nH]ccc34)nc(N3CCOCC3)nc2c1CN1CCN(C(=O)CO)CC1 [Compound 8] | 27 | 72 | 57 | 90 | – |
| COc1ncc(-c2nc(N3CCOCC3)nc3c(CN4CCN(C)CC4)c(C)sc23)cc1NS(C)(=O)=O [Compound 65] | 94 | 17.5 | >571 | 174 | 15.4 |
| COc1ncc(-c2nc(N3CCOCC3)nc3c(CN4CCC(C(C)(C)OC)CC4)c(C)sc23)cc1NS(C)(=O)=O [Compound 78] | 18 | 7.7 | >1298 | 302 | 10.6 |
| COc1ncc(-c2nc(N3CCOCC3)nc3c(CN4CCC(OC)CC4)c(C)sc23)cc1NS(C)(=O)=O [Compound 83] | 24 | 11.9 | >840 | 257 | 6.7 |
| COc1ncc(-c2nc(N3CCOCC3)nc3c(CN4CCC(C(C)(C)F)CC4)c(C)sc23)cc1NS(C)(=O)=O [Compound 85] | 69 | 8.6 | >1162 | 401 | 39.1 |
| COc1ncc(-c2nc(N3CCOCC3)nc3c(CN4CCCCC4)c(C)sc23)cc1NS(C)(=O)=O [Compound 86] | 25 | 12 | 402 | 136 | – |
| COc1ncc(-c2nc(N3CCOCC3)nc3c(CN4CCN(CC(F)(F)F)CC4)c(C)sc23)cc1NS(C)(=O)=O [Compound 87] | 45 | 12.5 | 498 | 204 | 41.6 |
| COc1ncc(-c2nc(N3CCOCC3)nc3c(CN4CCC(C(C)C)CC4)c(C)sc23)cc1NS(C)(=O)=O [Compound 88] | 73 | 5.8 | 1202 | 548 | 6.1 |
| COc1ncc(-c2nc(N3CCOCC3)nc3c(CN4CCC(N(C)C(C)C)CC4)c(C)sc23)cc1NS(C)(=O)=O [Compound 95] | 167 | 6.5 | 532 | 157 | 1.1 |
| COc1ncc(-c2nc(N3CCOCC3)nc3c(CN4CCC(C)(C)CC4)c(C)sc23)cc1NS(C)(=O)=O [Compound 99] | 24 | 34 | 244 | 152 | – |
| COc1ncc(-c2nc(N3CCOCC3)nc3c(CN4CCC(C)CC4)c(C)sc23)cc1NS(C)(=O)=O [Compound 101] | 29 | 12 | 482 | 390 | 32.6 |
| COc1ncc(-c2nc(N3CCOCC3)nc3c(CN4CCCC4)c(C)sc23)cc1NS(C)(=O)=O [Compound 102] | 16 | 9.3 | 200 | 146 | – |
| COc1ncc(-c2nc(N3CCOCC3)nc3c(CN4CCC5(CC4)OCCO5)c(C)sc23)cc1NS(C)(=O)=O [Compound 104] | 19 | 4.3 | 377 | 159 | – |
| COc1ncc(-c2nc(N3CCOCC3)nc3c(CN4CCC5(CC4)CNC5)c(C)sc23)cc1NS(C)(=O)=O [Compound 106] | 72 | 25.5 | >392 | 129 | – |
| COc1ncc(-c2nc(N3CCOCC3)nc3c(CN4CCC(O)CC4)c(C)sc23)cc1NS(C)(=O)=O [Compound 108] | 6 | 13 | 262 | 78 | – |
| COc1ncc(-c2nc(N3CCOCC3)nc3c(CN4CCN(C(C)(C)C)CC4)c(C)sc23)cc1NS(=O)(=O)C1CC1 [Compound 109] | 723 | 3.9 | 1296 | 251 | – |
| CCN(CC)C1CCN(Cc2c(C)sc3c(-c4cnc(OC)c(NS(C)(=O)=O)c4)nc(N4CCOCC4)nc23)CC1 [Compound 110] | 275 | 4.1 | 1112 | 203 | 3.3 |
| COc1ncc(-c2nc(N3CCOCC3)nc3c(CN4CCC(N5CCCC5)CC4)c(C)sc23)cc1NS(C)(=O)=O [Compound 112] | 126 | 7.6 | 611 | 108 | 1.1 |
| COc1ncc(-c2nc(N3CCOCC3)nc3c(CN4CCC(N5CCC[C@H]5CO)CC4)c(C)sc23)cc1NS(C)(=O)=O [Compound 126] | – | 4.7 | – | 170 | 3.9 |
| COc1ncc(-c2nc(N3CCOCC3)nc3c(CN4CCC(N5CCC[C@@H]5C)CC4)c(C)sc23)cc1NS(C)(=O)=O [Compound 127] | – | 5.8 | – | 38 | 1.5 |
| COc1ncc(-c2nc(N3CCOCC3)nc3c(CN4CCC(N5CCCCC5)CC4)c(C)sc23)cc1NS(C)(=O)=O [Compound 147] | 140 | 4.6 | 567 | 225 | 3.3 |
| COc1ncc(-c2nc(N3CCOCC3)nc3c(CN4CCC(N5CCC5)CC4)c(C)sc23)cc1NS(C)(=O)=O [Compound 148] | 110 | 4.7 | 587 | 280 | 7 |
| COc1ncc(-c2nc(N3CCOCC3)nc3c(CN4CCC(N5CCCCC5=O)CC4)c(C)sc23)cc1NS(C)(=O)=O [Compound 150] | 15 | 9.3 | 221 | 39 | 8.6 |
| COc1ncc(-c2nc(N3CCOCC3)nc3c(OC4CCC(N5CCCCC5)CC4)c(C)sc23)cc1NS(C)(=O)=O (stereo not shown) [Compound 153] | 418 | 11 | >909 | 42 | 0.6 |
